Laboratory results published in US12378279B2, “Nicotinamide riboside hydrogen malate crystal, and its preparation method and application” (priority 2024, dated 2025).

How the values were obtained:
[1] = Color change and hygroscopicity of products exposed to air (Karl Fischer moisture); type: physicochemical; conditions: RH 40%
Description: The nicotinamide riboside hydrogen malate crystal products obtained from the above Examples and Comparative Examples were respectively exposed to air (air humidity and temperature were controlled). […] Moisture (Karl Fischer) determination method was performed using an MC-2000 automatic micro-moisture analyzer from Mince Instruments (Xiamen) Co., Ltd., and a karl fischer reagent from Nanjing Chemical Reagent Co., Ltd.

[2] = Stability comparison: HPLC purity of samples sealed in polyethylene bags in a constant-temperature-humidity chamber; type: physicochemical; conditions: 25° C., RH 40%, sealed PE bag; for Decomposition rate on day 6: (initial sample purity−sample purity)/initial sample purity×100%
Description: The nicotinamide riboside hydrogen malate crystal obtained from the above Examples and Comparative Examples products was sealed in polyethylene (PE) bags, with 1 gram per bag. […] Samples were tested at regular intervals. Sample solution was prepared through the following steps. […] Then, the sample solution was filtered through a membrane, and the sample purity was determined using high performance liquid chromatography (HPLC).

[3] = Stability comparison: HPLC purity of samples in covered, sealed glass dishes in a constant-temperature-humidity chamber; conditions: 25° C., relative humidity 40%; for Decomposition rate over 6 days: (initial sample purity−sample purity)/initial sample purity×100%; for Purity: sealed glass dish
Description: The nicotinamide riboside hydrogen malate crystal obtained herein and the commercially-available nicotinamide riboside hydrogen malate crystal samples (A and B) were each divided into seven portions and separately placed into seven glass sample dishes, with 1 g of sample in each dish. The dishes were covered and sealed. All the samples were stored in a constant-temperature-humidity chamber at 25° C. and a relative humidity of 40%. The purity of the samples was tested daily. The decomposition rate was calculated using the following formula: decomposition rate=(initial sample purity−sample purity)/initial sample purity×100%.
Product purity analysis was performed through the following steps. One packet of the sample was dissolved in a 5 mL or 10 mL volumetric flask to prepare a 5 mL or 10 mL sample solution. Then, the purity of the sample was determined using high performance liquid chromatography (HPLC).
The high performance liquid chromatography (HPLC) method parameters were as follows: isocratic elution with 5% water (0.1% formic acid) and 95% methanol (0.1% formic acid) as the mobile phase, a wavelength of 254 nm, a temperature of 23.0° C. with 54% relative humidity, samples dissolved in methanol, an ODS-2 column (4.6×250 mm, […]) with pressure maintained at 12-13 MPa, a flow rate of 1.0 mL/min, an injection volume of […] and a run time greater than or equal to 15 min.

[4] = at 112-200° C., heating rate 10° C./min, nitrogen
Description: Thermogravimetric analysis (TGA) was performed using a TGA55 instrument from TA Instruments, USA, with a temperature range of 14.8-300° C., a heating rate of 10° C./min and a nitrogen flow rate of 40 mL/min.

Structure (SMILES): NC(=O)c1ccc[n+]([C@@H]2O[C@H](CO)[C@@H](O)[C@H]2O)c1.O=C(O)CC(O)C(=O)[O-] [Example 2, nicotinamide riboside hydrogen malate]
- Product moisture ([1]; Day 0, 25° C., listed as EXAMPLE 2): 0.28%
- Product moisture ([1]; Day 6, 25° C., listed as EXAMPLE 2): 3.1%
- Purity on day 6 ([2]; listed as EXAMPLE 2): 98.97%
- Initial purity ([2]; listed as EXAMPLE 2): 99.72%
- Decomposition rate on day 6 ([2]; listed as EXAMPLE 2): 0.75%

Structure (SMILES): NC(=O)c1ccc[n+]([C@@H]2O[C@H](CO)[C@@H](O)[C@H]2O)c1.O=C(O)CC(O)C(=O)[O-] [Example 1, nicotinamide riboside hydrogen malate]
- Stability compared to the commercially-available products ([3]; 6 days): better stability
- Decomposition rate over 6 days ([3]; listed as Product of Example 1): 0.759%
- Purity ([3]; day 0, listed as Product of Example 1): 99.576%
- Purity ([3]; day 1, listed as Product of Example 1): 99.553%
- Purity ([3]; day 2, listed as Product of Example 1): 99.494%
- Purity ([3]; day 3, listed as Product of Example 1): 99.510%
- Purity ([3]; day 4, listed as Product of Example 1): 99.518%
- Purity ([3]; day 5, listed as Product of Example 1): 99.499%
- Purity ([3]; day 6, listed as Product of Example 1): 98.820%
- Product moisture ([1]; Day 0, 25° C., listed as EXAMPLE 1): 0.30%
- Product moisture ([1]; Day 6, 25° C., listed as EXAMPLE 1): 2%
- Weight loss (TGA) [4]: 1-33%
- Purity on day 6 ([2]; listed as EXAMPLE 1): 99.65%
- Initial purity ([2]; listed as EXAMPLE 1): 99.67%
- Decomposition rate on day 6 ([2]; listed as EXAMPLE 1): 0.72%

Structure (SMILES): NC(=O)c1ccc[n+]([C@@H]2O[C@H](CO)[C@@H](O)[C@H]2O)c1.O=C(O)CC(O)C(=O)[O-] [Example 5, nicotinamide riboside hydrogen malate]
- Product moisture ([1]; Day 0, 25° C., listed as EXAMPLE 5): 0.31%
- Product moisture ([1]; Day 6, 25° C., listed as EXAMPLE 5): 2.9%
- Purity on day 6 ([2]; listed as EXAMPLE 5): 99.15%
- Initial purity ([2]; listed as EXAMPLE 5): 99.78%
- Decomposition rate on day 6 ([2]; listed as EXAMPLE 5): 0.63%

Structure (SMILES): NC(=O)c1ccc[n+]([C@@H]2O[C@H](CO)[C@@H](O)[C@H]2O)c1.O=C(O)CC(O)C(=O)[O-] [Example 3, nicotinamide riboside hydrogen malate]
- Product appearance ([1]; Day 0, 25° C.): White
- Product moisture ([1]; Day 0, 25° C., listed as EXAMPLE 3): 0.30%
- Product appearance ([1]; Day 6, 25° C.): White
- Product moisture ([1]; Day 6, 25° C., listed as EXAMPLE 3): 2.4%
- Purity on day 6 ([2]; listed as EXAMPLE 3): 98.95%
- Initial purity ([2]; listed as EXAMPLE 3): 99.69%
- Decomposition rate on day 6 ([2]; listed as EXAMPLE 3): 0.74%

Structure (SMILES): NC(=O)c1ccc[n+]([C@@H]2O[C@H](CO)[C@@H](O)[C@H]2O)c1.O=C(O)CC(O)C(=O)[O-] [Example 4, nicotinamide riboside hydrogen malate]
- Product moisture ([1]; Day 0, 25° C., listed as EXAMPLE 4): 0.22%
- Product moisture ([1]; Day 6, 25° C., listed as EXAMPLE 4): 1.8%
- Purity on day 6 ([2]; listed as EXAMPLE 4): 98.79%
- Initial purity ([2]; listed as EXAMPLE 4): 99.51%
- Decomposition rate on day 6 ([2]; listed as EXAMPLE 4): 0.72%

Structure (SMILES): NC(=O)c1ccc[n+]([C@@H]2O[C@H](CO)[C@@H](O)[C@H]2O)c1.O=C(O)CC(O)C(=O)[O-] [Commercially-available product B, nicotinamide riboside hydrogen malate]
- Decomposition rate over 6 days [3]: 4.77%
- Purity ([3]; day 0): 99.750%
- Purity ([3]; day 1): 98.843%
- Purity ([3]; day 2): 98.310%
- Purity ([3]; day 3): 97.982%
- Purity ([3]; day 4): 96.530%
- Purity ([3]; day 5): 95.020%
- Purity ([3]; day 6): 94.989%

Structure (SMILES): NC(=O)c1ccc[n+]([C@@H]2O[C@H](CO)[C@@H](O)[C@H]2O)c1.O=C(O)CC(O)C(=O)[O-] [Commercially-available product A, nicotinamide riboside hydrogen malate]
- Decomposition rate over 6 days [3]: 8.37%
- Purity ([3]; day 0): 99.900%
- Purity ([3]; day 1): 98.355%
- Purity ([3]; day 2): 96.843%
- Purity ([3]; day 3): 95.752%
- Purity ([3]; day 4): 94.185%
- Purity ([3]; day 5): 93.250%
- Purity ([3]; day 6): 91.538%

Structure (SMILES): NC(=O)c1ccc[n+]([C@@H]2O[C@H](CO)[C@@H](O)[C@H]2O)c1.O=C(O)CC(O)C(=O)[O-] [Example 6, nicotinamide riboside hydrogen malate]
- Product moisture ([1]; Day 0, 25° C., listed as EXAMPLE 6): 0.29%
- Product moisture ([1]; Day 6, 25° C., listed as EXAMPLE 6): 3.2%
- Purity on day 6 ([2]; listed as EXAMPLE 6): 99.11%
- Initial purity ([2]; listed as EXAMPLE 6): 99.81%
- Decomposition rate on day 6 ([2]; listed as EXAMPLE 6): 0.70%
